Patent US20260265321A1, “PEPTIDE AND POLYPEPTIDE INHIBITING THE NF-KB SIGNALING PATHWAY” (Centre National de la Recherche Scientifique, priority 2023, published 2026)
Residues, ends and D or L forms follow the SMILES beside them.

Experiments:
[1] = biological target: T1, IKKα(10-667) EE homodimer (Homo sapiens, UniProt O15111, S176E/S180E); test: Isothermal titration calorimetry (ITC) of peptide binding to IKKα homodimer; conditions: for Kd / TΔS / ΔG / ΔH: IKKα
T1 construct: an equivalent construct of the IKKα homodimer (i.e. IKKα(10-667) S176E/S180E, named IKKα(10-667) EE hereafter); 6×His (followed by TEV site) (N, cleaved yes); made in house; host or cells: Sf21 insect cells (baculovirus)
T1 sequence (O15111 10-667 S176E/S180E): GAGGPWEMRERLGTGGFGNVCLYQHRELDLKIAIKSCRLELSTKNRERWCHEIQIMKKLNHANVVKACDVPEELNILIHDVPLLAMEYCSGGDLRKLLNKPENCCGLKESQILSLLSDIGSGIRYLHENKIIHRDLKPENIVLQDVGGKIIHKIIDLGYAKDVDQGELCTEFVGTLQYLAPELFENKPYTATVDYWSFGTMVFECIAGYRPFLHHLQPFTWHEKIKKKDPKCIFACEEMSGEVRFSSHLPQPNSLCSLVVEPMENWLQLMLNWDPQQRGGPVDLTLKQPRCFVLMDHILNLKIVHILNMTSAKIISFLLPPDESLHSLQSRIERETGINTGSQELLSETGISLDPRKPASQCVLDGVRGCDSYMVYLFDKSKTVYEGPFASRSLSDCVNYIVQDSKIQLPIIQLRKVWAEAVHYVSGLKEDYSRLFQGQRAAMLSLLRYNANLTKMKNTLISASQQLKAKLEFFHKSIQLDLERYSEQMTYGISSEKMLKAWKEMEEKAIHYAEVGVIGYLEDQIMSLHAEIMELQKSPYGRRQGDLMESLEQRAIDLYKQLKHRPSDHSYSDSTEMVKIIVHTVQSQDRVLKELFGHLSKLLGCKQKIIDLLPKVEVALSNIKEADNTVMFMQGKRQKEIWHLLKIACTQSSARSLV
Method: All experiments were performed in ITC buffer (20 mM HEPES pH 8.0, 150 mM NaCl, 1 mM TCEP) unless otherwise stated. Purified IKKα(10-667) EE and IKKβ(1-669) EE protein samples were dialyzed overnight against ITC buffer at 4° C. Just before the ITC experiments, IKKα or IKKβ samples were concentrated, incubated at room temperature for 30 minutes and centrifuged at 11000 g to remove eventual precipitate. The final concentrations of IKKα and IKKβ in the sample cell varied between 22 and 50 μM depending on the measurement. HPLC purified synthetic peptides (IκBα pep) comprising residues 297-317 of IκBα were further desalted using a Nap5 (GE Healthcare, #17-0853-01) column equilibrated in milliQ water, lyophilized and then resuspended in ITC buffer. The concentration of peptides in the syringe varied between 220 and 975 μM depending on the measurement.
All ITC measurements were performed using a PEAQ-ITC MALVERN instrument. The titration parameters were set as following: temperature 25° C., reference power 10 μcal/s, feedback=high, stirring speed 750 RPM, initial delay 60 s, first injection 0.4 μl in 0.8 s and the remaining 19 injections were 2 μL in 4 s with 120 s of spacing. The data were fitted to a 1:1 binding model. All data were processed using NITPIC software and global fitting of two datasets was carried out using SEDPHAD.
To evaluate binding affinities, isothermal titration calorimetry (ITC) experiments were performed using a synthetic peptide that comprises the YDDφXφ motif plus the N-terminal acidic patch (residues 297-317, named IκBα pep hereafter) and purified IKKβ(1-669) EE homodimer or an equivalent construct of the IKKα homodimer (i.e. IKKα(10-667) S176E/S180E, named IKKα(10-667) EE hereafter). […] ITC analyses on the IKKα/β heterodimer were prevented by strong aggregation propensity at the concentrations required for these experiments.
All ITC experiments were performed at 25° C. The data were fitted to a 1:1 binding model. N refers to the binding stoichiometry of IKKα/β: pep, meaning that approximately half of total IKKα/β concentration binds pep ligand in agreement with the dimer form of IKKα/β being binding competent. The values for the IKKα interaction with IRF7 pep should be regarded as estimates due to low affinity and weakly exothermic binding, and therefore high experimental error and fitting uncertainty. All data were processed using NITPIC software and global fitting of two datasets was carried out using SEDPHAD.

6×His-IKKβ(1-669) EE = biological target: T2, 6×His-IKKβ(1-669) EE (Homo sapiens, UniProt O14920, S177E/S181E); test: MBP-pulldown of recombinant IKKβ by MBP-peptide fusions; type: binding; conditions: 0.3 μM IKKβ, Western blot
T2 construct: a nearly full-length (residues 1-669) and constitutively active (S177E/S181E) mutant construct of human IKKβ; made in house; host or cells: Sf21 insect cells (baculovirus)
T2 sequence (O14920 1-669 S177E/S181E): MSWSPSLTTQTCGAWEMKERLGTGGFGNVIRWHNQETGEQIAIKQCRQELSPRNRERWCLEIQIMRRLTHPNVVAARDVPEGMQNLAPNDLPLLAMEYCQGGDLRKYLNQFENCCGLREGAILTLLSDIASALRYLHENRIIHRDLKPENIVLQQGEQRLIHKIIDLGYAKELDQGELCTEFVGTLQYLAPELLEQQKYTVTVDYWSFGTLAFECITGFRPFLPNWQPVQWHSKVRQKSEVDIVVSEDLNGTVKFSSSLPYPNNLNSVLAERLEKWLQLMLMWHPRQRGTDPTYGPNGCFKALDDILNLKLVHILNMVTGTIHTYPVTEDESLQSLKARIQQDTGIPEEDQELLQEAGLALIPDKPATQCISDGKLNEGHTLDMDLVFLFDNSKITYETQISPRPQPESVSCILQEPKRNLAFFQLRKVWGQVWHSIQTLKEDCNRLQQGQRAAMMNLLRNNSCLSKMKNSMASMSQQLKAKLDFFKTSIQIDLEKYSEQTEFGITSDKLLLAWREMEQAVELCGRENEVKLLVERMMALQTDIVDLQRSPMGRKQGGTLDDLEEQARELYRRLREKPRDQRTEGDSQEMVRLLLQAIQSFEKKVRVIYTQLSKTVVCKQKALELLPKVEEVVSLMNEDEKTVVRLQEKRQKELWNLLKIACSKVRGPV
Method: Experiments were performed in PD buffer (20 mM Tris pH 8.0, 150 mM NaCl, 2 mM DTT). For each experiment, 10 μl of amylose resin (dry bead volume) coupled to MBP-fusion constructs were incubated with […] of purified 6×His-IKKα(10-667) EE and 6×His-IKKβ (1-669) EE constructs adjusted at a concentration of 0.3 μM for 2 hours at 4° C. After two quick washing steps with PD buffer, complexes were eluted by incubation with 20 μl of the same buffer supplemented with 20 mM maltose for 15 minutes at 4° C. After mild centrifugation, supernatants were recovered and migrated onto two separate 10% SDS-PAGE gels. One gel was used for Western blot analysis to detect His-IKKα or His-IKKβ using and anti-6×His antibody (Sigma, #SAB4301134), the other for Coomassie staining to detect MBP-fusion proteins. Quantification of band intensity was done using the Image J software.

| enhancement of affinity to IKKα relative to IκBα pep wt [1] [fold] | Kd [1] [µM] | interaction with IKKβ by pulldown (6×His-IKKβ(1-669) EE) | Structure (SMILES) | N (binding stoichiometry of IKKα: pep) ([1]; 25° C., 1:1 binding model) | Kd ([1]; 25° C., 1:1 binding model) [µM] | TΔS ([1]; 25° C.) [kcal/mol] | ΔG ([1]; 25° C.) [kcal/mol] | ΔH ([1]; 25° C.) [kcal/mol] |
| --- | --- | --- | --- | --- | --- | --- | --- | --- |
|  |  |  | CC(C)C[C@H](NC(=O)[C@@H](NC(=O)[C@H](CC(C)C)NC(=O)[C@H](CCCNC(=N)N)NC(=O)[C@H](CCC(N)=O)NC(=O)CNC(=O)CNC(=O)[C@H](Cc1ccccc1)NC(=O)[C@@H](NC(=O)[C@H](CS)NC(=O)[C@H](CC(=O)O)NC(=O)[C@H](CC(=O)O)NC(=O)[C@H](Cc1ccc(O)cc1)NC(=O)[C@@H]1CCCN1C(=O)[C@H](CC(C)C)NC(=O)[C@H](CCC(=O)O)NC(=O)[C@H](CC(=O)O)NC(=O)[C@H](CCC(=O)O)NC(=O)[C@@H](NC(=O)[C@H](Cc1ccccc1)NC(=O)[C@@H](N)CCC(=O)O)[C@@H](C)O)C(C)C)[C@@H](C)O)C(=O)O [IκBα pep] (H-EFTEDELPYDDCVFGGQRLTL-OH; N-terminus and C-terminus assumed) | 0.62 | 9 | -8.35 | -6.88 | -15.2 |
| 25 | 0.35 | clearly enhance binding to IKKβ | CC(C)C[C@H](NC(=O)[C@@H](NC(=O)[C@H](CC(C)C)NC(=O)[C@H](CCCNC(=N)N)NC(=O)[C@H](CCC(N)=O)NC(=O)CNC(=O)CNC(=O)[C@H](Cc1ccccc1)NC(=O)[C@@H](NC(=O)[C@H](CC(C)C)NC(=O)[C@H](CC(=O)O)NC(=O)[C@H](CC(=O)O)NC(=O)[C@H](Cc1ccc(O)cc1)NC(=O)[C@@H]1CCCN1C(=O)[C@H](CC(C)C)NC(=O)[C@H](CCC(=O)O)NC(=O)[C@H](CC(=O)O)NC(=O)[C@H](CCC(=O)O)NC(=O)[C@@H](NC(=O)[C@H](Cc1ccccc1)NC(=O)[C@@H](N)CCC(=O)O)[C@@H](C)O)C(C)C)[C@@H](C)O)C(=O)O [IkBα pep C308L] (H-EFTEDELPYDDLVFGGQRLTL-OH; N-terminus and C-terminus assumed) | 0.65 |  | -4.71 | -8.80 | -13.5 |
